Measurements: US20220107328A1, “METHODS OF TREATING LIVER DISEASES” (Camp4 Therapeutics Corporation, priority 2018, published 2022)

What was measured:
[1] = Serum glucose quantification in mice; format: in vivo, mouse
Procedure: Mouse 7-8 week old C57BL/6J mice were divided into 9 groups. Each group had 8 male mice. All mice were given a high sucrose diet for 10 days (Diet no. 901683; 74% kCal from sucrose. […] Food was removed at the start of the light cycle, about 7 am, except on the last day, when food was left in the cage until termination. On day 7-10, mice were administered daily (QD) via oral gavage, candidate compounds at a volume of 10 mL/kg with the compound in vehicle solution (0.5% methylcellulose/0.2% tween20). Vehicle alone was administered to control group 1. OSI-027 was administered at 25 mg/kg, 10 mg/kg, 5 mg/kg, and 2 mg/kg to groups 2-5. […] The treatment was administered in the evening on Days 7 to 10 and in the morning on Day 11, starting at 5 am. On Day 11, mice were terminated 4 hours post last dose at 9 am, for a total of 5 doses of each candidate compound. Mice were weighed 2×/week until Day 11. Liver and blood samples were collected after mice were terminated. Liver samples were process for mRNA extraction as previously described. Blood samples were processed for serum collection. […] Serum glucose levels were measured in a single-reagent coupled-enzyme assay, against a glucose standard curve, colorimetrically. The glucose assay reagent was prepared as follows: one capsule of glucose oxidase/peroxidase (Sigma, cat #G3660-1CAP) was dissolved in 19.6 ml of deionized water. Separately, one vial of O-Dianisidine reagent (Sigma, cat #D2679) was dissolved in 0.5 ml of deionized water, 0.4 ml of the O-Dianisidine reagent was added into the enzyme mix to make 20 ml of 2× Glucose assay reagent. The glucose assay reagent was made fresh prior to running the assay. […] A no glucose control was included as a reagent blank. […] The reaction was incubated at 37° C. for 30 min. 100 μl of 2N sulfuric acid was then added to quench the reaction. The color developed was read spectrophotometrically at 540 nm. The amount of glucose in the samples were determined based on the parameters of the linear fit obtained from the glucose standard curve.

[2] = tested on: phosphorylated 4EBP1 (p4EBP1c (37/46)/4EBP1c); assay: Western blot of phosphorylated 4EBP1 in human hepatocytes; format: cell-based; settings: 3 μM, mTORC1 pathway, time point not stated
[3] = tested on: ANGPTL3 mRNA in mouse liver; assay: High sucrose diet mouse dose response study, liver ANGPTL3 mRNA; format: in vivo; settings: HS diet mice, 6 hours post dose
[4] = tested on: PNPLA3 mRNA in mouse liver; assay: High sucrose diet mice, liver PNPLA3 mRNA after five doses (Example 31); format: in vivo
Procedure: Mouse 7-8 week old C57BL/6J mice were divided into 9 groups. Each group had 8 male mice. All mice were given a high sucrose diet for 10 days (Diet no. 901683; 74% kCal from sucrose. MP Biomedicals, Santa Ana, Calif.) at the start of the dark cycle, about 7 pm. Food was removed at the start of the light cycle, about 7 am, except on the last day, when food was left in the cage until termination. On day 7-10, mice were administered daily (QD) via oral gavage, candidate compounds at a volume of 10 mL/kg with the compound in vehicle solution (0.5% methylcellulose/0.2% tween20). Vehicle alone was administered to control group 1. OSI-027 was administered at 25 mg/kg, 10 mg/kg, 5 mg/kg, and 2 mg/kg to groups 2-5. […] The treatment was administered in the evening on Days 7 to 10 and in the morning on Day 11, starting at 5 am. On Day 11, mice were terminated 4 hours post last dose at 9 am, for a total of 5 doses of each candidate compound. Mice were weighed 2×/week until Day 11. Liver and blood samples were collected after mice were terminated. Liver samples were process for mRNA extraction as previously described. Blood samples were processed for serum collection. The geometric mean for the mRNA analysis was calculated by averaging the PCR CTs from the housekeepering genes ACTB, GAPDH, GUSB, HPRT, and B2M from the same cDNA sample.

[5] = tested on: PNPLA5 mRNA in mouse liver; assay: High sucrose diet mouse dose response study, liver PNPLA5 mRNA; format: in vivo; settings: HS diet mice, 6 hours post dose
Procedure: C57BL/6J mice were divided into 14 groups. Each group had 6 male mice. All mice were given an HS diet at night on a synchronized schedule. […] The animals received no food at night on Day 10.
Mouse liver tissues were pulverized in liquid nitrogen and aliquoted into small microtubes. TRIzol (Invitrogen Cat #15596026) was added to the tubes to facilitate cell lysis from tissue samples. The TRIzol solution containing the disrupted tissue was then centrifuged and the supernatant phase was collected. Total RNA was extracted from the supernatant using Qiagen RNA Extraction Kit (Qiagen Cat #74182) and the target mRNA levels were analyzed using qRT-PCR. mRNA levels for PNPLA3, PNPLA5, COL1A1, and PCSK9 were assessed.

[6] = tested on: PCSK9 mRNA; assay: qRT-PCR of PCSK9 mRNA in primary hepatocytes; format: cell-based, human; settings: donor 4178, 3 μM, relative to GUSB
[7] = tested on: COL1A1 mRNA; assay: qRT-PCR of COL1A1 mRNA in human primary hepatic stellate cells; format: cell-based; settings: 3 μM, relative to GAPDH
[8] = tested on: mTOR signaling of phospho-4E-BP1; settings: cited from earlier work
[9] = tested on: triglyceride content in HepG2 cells; assay: AdipoRed staining and triglyceride quantification of lipid droplet fraction in HepG2 cells; format: cell-based; settings: 72 hours; for TG (nmol/ug protein) (±Standard Deviation): lipid droplet fraction
Procedure: HepG2 cells were treated with OSI-027 as described in Example 1. DMSO was used as a control. After treatment, the cells were stained with the AdipoRedTM Assay Reagent (cat #PT-7009) according to the manufacturer's instructions. Parallel treatment samples were processed for triglyceride quantification. For triglyceride quantification, HepG2 cells were treated with OSI-027 for 72 hours. Cells were collected and the lipid droplet (LD) fraction of the cell lysate enriched using the lipid droplet isolation kit (Cell Biolabs Inc., #[…]) per the manufacturer's instructions. The triglyceride content of the LD-enriched fraction measured using a Triglyceride Quantification Kit (Biovision Inc., #K622) per manufacturer's protocol, with a fluorimetric read-out.

Structure (SMILES) | serum glucose (in words) ([1]; 1 mg/kg) | serum glucose (in words) ([1]; 10 mg/kg, 5 mg/kg, and 2 mg/kg) | p4EBP1c (37/46)#/4EBP1c [2] | ANGPTL3 liver mRNA, dose titration (in words) [3] | decrease in PNPLA3 ([4]; lowest dose, 1 mg/kg) | PNPLA5 liver mRNA, dose titration (in words) [5] | serum glucose (in words) ([1]; 25 mg/kg) | Primary Hepatocytes 4178 PCSK9 (fold change in mRNA expression) [6] | relative PNPLA3 mRNA in mouse livers (in words) ([4]; OSI-027 25, 10, 5, 2 mg/kg, PF-04691502 10, 5, 2, 1 mg/kg, five doses, 4 hours post last dose, p<0.00001 vs control) | reduction of PNPLA3 expression in vivo ([4]; three different concentrations (10 mg/kg, 5 mg/kg, 2 mg/kg)) | Primary Stellate cells COL1A1 (fold change in mRNA expression) [7] | IC50 [8] | TG (nmol/ug protein) (±Standard Deviation) ([9]; 0.33 μM) | TG (nmol/ug protein) (±Standard Deviation) ([9]; 1 μM) | triglyceride content (in words) [9]
COc1ccc(-c2cc3c(C)nc(N)nc3n([C@H]3CC[C@H](OCCO)CC3)c2=O)cn1 [PF-04691502] | moderate increased insulin and glucose levels | significant serum glucose and serum insulin increases | 0.45 | decrease in COL1A1, ANGLPTL3 and PCSK9 mRNA | 50% | dose dependent decrease in PNPLA3 and PNPLA5 mRNA | – | – | – | – | – | – | – | – | –
COc1cccc2cc(-c3nc([C@H]4CC[C@H](C(=O)O)CC4)n4ncnc(N)c34)[nH]c12 [OSI-027] | – | no significant changes in serum glucose or serum insulin levels | 0.43 | dose dependent decrease | – | dose dependent decrease | significant increased | 0.69 | decreased PNPLA3 at each dose tested | 50% | 0.51 | 1000 nM | 0.24 ± 0.02828 nmol/ug protein | 0.235 ± 0.03535 nmol/ug protein | reduced triglyceride content in HepG2 cells
